Test results: PubChem BioAssay (NCI)
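Briefly, cells in 96-well plates were exposed to five compound concentrations for 48 h, and endpoints were estimated by linear interpolation. TGI is the concentration that stops growth completely.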

Tests used:
Assay in all cases: NCI-60 cell line screen, 48 h
[1] = test system: UACC-62 melanoma
[2] = test system: OVCAR-3 ovarian
[3] = test system: HS 578T breast
[4] = test system: ACHN renal
[5] = test system: MOLT-4 leukemia
[6] = test system: HCT-116 colon
[7] = test system: U251 CNS
[8] = test system: MALME-3M melanoma
[9] = test system: HT29 colon
[10] = test system: A549 NSCLC
[11] = test system: COLO 205 colon
[12] = test system: NCI-H460 lung
[13] = test system: MDA-N
[14] = test system: K-562 leukemia
[15] = test system: IGROV1 ovarian
[16] = test system: NCI-H23 lung
[17] = test system: UACC-257 melanoma

| SMILES | TGI [1] | TGI [2] | TGI [3] | TGI [4] | TGI [5] | TGI [6] | TGI [7] | TGI [8] | TGI [9] | TGI [10] | TGI [11] | TGI [12] | TGI [13] | TGI [14] | TGI [15] | TGI [16] | TGI [17] |
| --- | --- | --- | --- | --- | --- | --- | --- | --- | --- | --- | --- | --- | --- | --- | --- | --- | --- |
| CCCCCCc1cc2cc(C(=O)Nc3ccccc3F)c(=N)oc2cc1O | 36.1 µM | 25.9 µM | 63.8 µM | 25.6 µM | 90.5 µM | 20.6 µM | 17.9 µM | 57.6 µM | 62.9 µM | 26.9 µM | 39.3 µM | 97.8 µM | 24 µM | > 100 µM | 13.7 µM | 8.03 µM | 42.2 µM |
| CC1CC(=O)N2CCCNC2=C1C#N (stereo unspecified) | > 100 µM | > 100 µM | > 100 µM | – | > 100 µM | > 100 µM | > 100 µM | > 100 µM | > 100 µM | > 100 µM | > 100 µM | > 100 µM | > 100 µM | > 100 µM | > 100 µM | > 100 µM | > 100 µM |
| CC(C)(C)c1ccc(-c2nc3ccccc3c(=O)o2)cc1 | > 100 µM | 62.1 µM | > 100 µM | > 100 µM | 47.8 µM | > 100 µM | > 100 µM | > 100 µM | > 100 µM | 86.6 µM | 78.7 µM | > 100 µM | > 100 µM | > 100 µM | > 100 µM | > 100 µM | > 100 µM |
| NC(=O)Cc1ncn(-c2ccccc2)n1 | > 100 µM | > 100 µM | > 100 µM | > 100 µM | > 100 µM | > 100 µM | – | > 100 µM | > 100 µM | > 100 µM | > 100 µM | – | > 100 µM | > 100 µM | > 100 µM | > 100 µM | > 100 µM |
| COc1cc(C2SCC(=O)N2c2ccc(-c3ccc(-n4c(-c5ccccc5)nc5ccccc5c4=O)cc3)cc2)ccc1O (stereo unspecified) | > 100 µM | > 100 µM | > 100 µM | > 100 µM | > 100 µM | > 100 µM | > 100 µM | > 100 µM | > 100 µM | > 100 µM | > 100 µM | > 100 µM | > 100 µM | > 100 µM | > 100 µM | > 100 µM | > 100 µM |
| CCOC(=O)C1=C(OS(=O)(=O)C(F)(F)F)CCCC1 | > 100 µM | > 100 µM | > 100 µM | > 100 µM | > 100 µM | – | > 100 µM | > 100 µM | > 100 µM | > 100 µM | > 100 µM | > 100 µM | > 100 µM | > 100 µM | > 100 µM | > 100 µM | > 100 µM |
| COc1ccc(-c2nc(N(C)C)c3ccccc3n2)cc1 | 37.6 µM | – | 59.2 µM | 53.5 µM | 15.8 µM | 17.4 µM | 80 µM | 42.1 µM | 22.7 µM | 46.8 µM | 29.6 µM | 26.9 µM | 32.5 µM | 40.7 µM | > 100 µM | 69 µM | 32.6 µM |
| CCOC(=O)N1CC2(C(=O)OC)C=CC1C(C(=O)OC)C2 (stereo unspecified) | > 100 µM | > 100 µM | > 100 µM | > 100 µM | > 100 µM | > 100 µM | > 100 µM | > 100 µM | – | > 100 µM | > 100 µM | > 100 µM | > 100 µM | > 100 µM | > 100 µM | > 100 µM | > 100 µM |
| Cc1nc2c(O)cccc2c(=O)[nH]1 | > 1000 µM | > 1000 µM | > 1000 µM | > 1000 µM | > 1000 µM | > 1000 µM | > 1000 µM | > 1000 µM | > 1000 µM | > 1000 µM | – | > 1000 µM | > 1000 µM | > 1000 µM | > 1000 µM | > 1000 µM | > 1000 µM |
| C/C(=N\Nc1nc2ccccc2[nH]1)c1ccncn1 | – | 13 µM | > 100 µM | 0.986 µM | > 100 µM | 26.8 µM | > 100 µM | > 100 µM | > 100 µM | > 100 µM | > 47.4 µM | > 100 µM | > 100 µM | > 100 µM | 43.8 µM | > 33.3 µM | > 31.6 µM |
| Cc1ccc(-c2c(C#N)c(-c3ccc([N+](=O)[O-])cc3)c(C#N)c(=O)n2NS(=O)(=O)c2ccc(C)cc2)cc1 | > 100 µM | > 100 µM | 95.8 µM | > 100 µM | 50.1 µM | > 100 µM | > 100 µM | > 100 µM | > 100 µM | > 100 µM | > 100 µM | > 100 µM | > 100 µM | > 100 µM | > 100 µM | – | > 100 µM |
| COc1ccc(/C=C/C(=O)c2nc3ccccc3[nH]2)cc1 | 38.9 µM | 48.5 µM | > 77.2 µM | 34.5 µM | > 67.1 µM | 18.6 µM | 37.3 µM | 61.7 µM | 22.9 µM | > 81.8 µM | 26 µM | 47.5 µM | 32.9 µM | > 100 µM | 25.9 µM | – | 52 µM |
| CC1=NN(c2nc(N)nc(C(C)Sc3cc(Cl)c(C)cc3S(N)(=O)=O)n2)C(C)(C)C1 (stereo unspecified) | – | > 10 µM | > 10 µM | > 10 µM | > 10 µM | > 10 µM | > 10 µM | > 10 µM | > 10 µM | > 10 µM | > 10 µM | > 10 µM | > 10 µM | > 10 µM | > 10 µM | > 10 µM | > 10 µM |
| Cn1c(=O)oc2cc(C(=S)N3CCC(Cc4ccccc4)CC3)ccc21 | > 100 µM | > 100 µM | > 100 µM | > 100 µM | > 100 µM | > 100 µM | > 100 µM | > 100 µM | > 100 µM | – | > 100 µM | > 100 µM | > 100 µM | > 100 µM | > 100 µM | > 100 µM | > 100 µM |
